Data from patent publication US20220143003A1, “COMPOSITIONS AND METHODS TO TREAT NON-ALCOHOLIC FATTY LIVER DISEASES (NAFLD)” (Coherus Biosciences, Inc., priority 2018, published 2022).

How the values were obtained:
Format in all cases: in vivo, male C57BL/6JRj mice
DIO-NASH mice [1] = experiment: Liver α-SMA IHC quantified by morphometry; settings: for Relative terminal liver α-SMA by morphometry / Total terminal α-SMA (% fractional area multiplied with liver weight): group mean
Description: Protein markers of fibrosis (Col1a1), fibrogenesis (α-SMA) and inflammation (Gal-3) were assessed by immunohistochemistry. α-SMA and collagen type I increase in regulation of quiescent hepatic stellate cell activation into myofibroblast-like cells where activated hepatic stellate cells are the main collagen producing cells in the liver (Carpino et al 2005, Hou and Syn 2018) whereas Gal-3 is involved in mediating inflammatory response and considered as a macrophage activation marker (Sciacchitano et al, 2018). For morphometric quantification of liver Col1a1 (using antibody from Southern Biotech, Cat. #1310-01), alpha-smooth muscle actin (α-SMA; using antibody from Abcam, Cat. #Ab124964) and Galectin-3 (using antibody from Biolegend, Cat. #125402), IHC staining was performed using standard procedures. Briefly, after antigen retrieval and blocking of endogenous peroxidase activity, slides were incubated with primary antibody. For all IHC stains, the primary antibody was detected using a polymeric HRP-linker antibody conjugate and visualized using DAB as chromogen. Finally, sections were counterstained in hematoxylin and cover-slipped before scanning.
Quantitative assessment of immunoreactivity is evaluated as follows. IHC-positive staining is quantified by image analysis using the Visiomorph software (Visiopharm, Denmark). Visiomorph protocols are designed to analyze the virtual slides in two steps: 1. Crude detection of tissue at low magnification (1× objective). The liver capsule is excluded. 2. Detection of IHC-positive staining (e.g. green; collagen 1 IHC), tissue (e.g. red) and fat (e.g. pink) at high magnification (10×objective). The quantitative estimate of IHC-positive staining is calculated as an area fraction (AF) according to the following formula:
Terminal liver α-SMA was quantified by morphometry. Relative terminal liver α-SMA (% fractional area) is expressed as mean of n=12-14+SEM.
Total terminal α-SMA values are in milligrams (% fractional area multiplied with liver weight) and expressed as mean of n=12-14+SEM.

DIO-NASH mice [2] = experiment: Liver steatosis (liver lipid) quantified by morphometry on HE slides; settings: terminal, group mean
Description: For Hematoxylin & Eosin (HE) staining, slides were incubated in Mayer's Hematoxylin, washed in tap water, stained in Eosin Y solution, […], mounted with Pertex and allowed to dry before scanning.
Quantitative assessment of steatosis is evaluated as follows. Steatosis is quantified on H&E stained slides by image analysis using the Visiomorph software (Visiopharm, Denmark). Visiomorph protocols are designed to analyze the virtual slides in two steps: 1. Crude detection of tissue at low magnification (1× objective). 2. Detection of steatosis (pink) and tissue (blue) at high magnification (20× objective). The quantitative estimate of steatosis is calculated as an area fraction (AF) according to the following formula:
Terminal liver steatosis (i.e. liver lipid) was quantified by morphometry. Relative liver steatosis is denoted in % fractional area. Values expressed as mean of n=12-14+SEM.
Total liver steatosis is denoted in milligrams (% fractional area multiplied with liver weight). Values expressed as mean of n=12-14+SEM.

DIO-NASH mice [3] = experiment: Absolute and relative liver weight at termination; settings: for Absolute liver weight at termination / Liver weight at termination, relative (% of body weight): group mean
Description: Animals were terminated after 12 weeks of treatment in a non-fasting state. Animals were put under isoflurane anesthesia, the abdominal cavity was opened, and cardiac blood was drawn directly into a Vacuette of the right dimension and anticoagulant and mixed by inversion 5 times. Blood was placed at 4° C. until centrifugation at 3000×g for 10 minutes at 4° C. The plasma supernatants were transferred to new tubes and immediately frozen on dry ice and stored at −80° C. Upon necropsy, the whole liver was collected and weighed. The liver was sampled for histological and biochemical analyses as described below.
Absolute liver weight at termination (g). Values expressed as mean of n=12-14+SEM.
Liver weight at termination in relative (% of body weight) values. Values expressed as mean of n=12-14+SEM.

DIO-NASH mice [4] = experiment: Intraperitoneal insulin tolerance test (IPITT), week 10; set-up: Area under the curve 0-180 min IPITT (blood glucose): unit not given here; settings: for Area under the curve 0-180 min IPITT (blood glucose): week 10, 6 h fasted, i.p. insulin 0.5 U/kg, group mean
Description: Mice were fasted 6 hours prior to intraperitoneal insulin administration (0.5 Unit/kg, rapid acting insulin NovoRapid). At the various time points after insulin administration, blood samples were collected into heparinized glass capillary tubes and immediately suspended in glucose/lactate system solution buffer (EKF-diagnostics, Germany). Blood glucose (BG) was measured using a BIOSEN c-Line glucose meter (EKF-diagnostics, Germany) according to the manufacturer's instructions. After the last blood sample, the animals were returned to the normal feeding schedule. The order of the animals was randomized before the procedure and mice were dosed with compounds just after the −60 minutes blood sample.
Intraperitoneal insulin tolerance test (IPITT) in week 10. Left: Temporal course of blood glucose levels during 6 h fasted IPITT. Intraperitoneal insulin bolus (0.5 U/kg) at t=0 min.
Area under the curve calculated from the temporal course from 0-180 min PITT Values expressed as mean of n=12-14+SEM.

DIO-NASH mice [5] = experiment: Absolute and relative body weight, measured daily and at termination; settings: for Absolute body weight at termination / Terminal relative body weight, percentage of starting body weight: group mean; for Terminal relative body weight, percentage of starting body weight: day 83/84/85, baseline day 0=100%
Description: The Diet-induced-obesity (DIO)-NASH mouse model was induced by feeding male C57BL/6JRj mice a high fat diet containing 40% fat with trans-fat, 20% fructose and 2% cholesterol (AMLN diet or D09100301, Research Diets Inc., USA). Induction of NASH was started at 5 weeks of age and mice were fed the AMLN diet for 36 weeks prior to study start resulting in NASH, which was confirmed by pre-biopsy prior to study start as described below.
Absolute body weight, BW, (g) was measured daily throughout the study period. Values expressed as mean of n=11-14+SEM (see FIG. 1).
Absolute body weight at termination (measured day 83/84/85). Values expressed as mean of n=12-14+SEM.
Relative BW, recorded as percentage of starting body weight (baseline day 0=100%), was measured daily throughout the study period. Values expressed as mean of n=11-14+SEM (see FIG. 2).
Terminal relative body weight (measured day 83/84/85), recorded as percentage of starting body weight (baseline day 0=100%). Values expressed as mean of n=12-14+SEM.

[6] = DIO-NASH mice, 12 weeks of treatment, summary of data
[7] = CHS-131 High dose (alone or combined)
[8] = day 83/84/85, CHS-131 High 30 mg/kg, empagliflozin 10 mg/kg, elafibranor 30 mg/kg PO, liraglutide 0.4 mg/kg SC, QD
[9] = CHS-131 High 30 mg/kg, empagliflozin 10 mg/kg, elafibranor 30 mg/kg PO, liraglutide 0.4 mg/kg SC, QD

Structure (SMILES) | Relative terminal liver α-SMA by morphometry (DIO-NASH mice [1]; [7]) [% fractional area] | Total terminal α-SMA (% fractional area multiplied with liver weight) (DIO-NASH mice [1]; [7]) [milligrams] | Relative liver steatosis (liver lipid) by morphometry (DIO-NASH mice [2]; [7]) [% fractional area] | Total liver steatosis (% fractional area multiplied with liver weight) (DIO-NASH mice [2]; [7]) [milligrams] | Absolute liver weight at termination (DIO-NASH mice [3]; [7]) [g] | Liver weight at termination, relative (% of body weight) (DIO-NASH mice [3]; [7]) | Area under the curve 0-180 min IPITT (blood glucose) (DIO-NASH mice [4]; [7]) | Absolute body weight at termination (DIO-NASH mice [5]; [8]) [grams] | Terminal relative body weight, percentage of starting body weight (DIO-NASH mice [5]; [9]) [%] | also measured
O=S(=O)(Nc1cc(Cl)c(Oc2cnc3ccccc3c2)c(Cl)c1)c1ccc(Cl)cc1Cl [CHS-131] | 3.07 | 102 | 23.1 | 758 | 3.14 | 8.15 % of body weight | 767 | 38.2 | 102 | Marker of fibrosis α-SMA, effect in words (DIO-NASH mice [1]; [6]): positive trends for improvement; Decrease of terminal α-SMA (marker of fibrosis) (DIO-NASH mice [1]; DIO-NASH mice, compared to vehicle alone, trend): 15%; Relative terminal liver α-SMA by morphometry (DIO-NASH mice [1]; CHS-131 Low dose): 3.49 % fractional area; Total terminal α-SMA (% fractional area multiplied with liver weight) (DIO-NASH mice [1]; CHS-131 Low dose): 110 milligrams; Relative liver steatosis (liver lipid) by morphometry (DIO-NASH mice [2]; CHS-131 Low dose): 26.4 % fractional area; Total liver steatosis (% fractional area multiplied with liver weight) (DIO-NASH mice [2]; CHS-131 Low dose): 826 milligrams; Relative liver weight, effect in words (DIO-NASH mice [3]; DIO-NASH mice, compared to DIO mice administered vehicle only): No difference; Absolute liver weight at termination (DIO-NASH mice [3]; CHS-131 Low dose): 3.21 g; Liver weight at termination, relative (% of body weight) (DIO-NASH mice [3]; CHS-131 Low dose): 8.4 % of body weight; Insulin sensitization, effect in words (DIO-NASH mice [4]; [6]): significant improvement; Decrease of insulin resistance (DIO-NASH mice [4]; DIO-NASH mice, compared to DIO mice administered vehicle only, significant, not in a dose response manner): 15%; Area under the curve 0-180 min IPITT (blood glucose) (DIO-NASH mice [4]; CHS-131 Low dose): 758; Body weight, effect in words (DIO-NASH mice [5]; compared to DIO mice administered vehicle only): tends to reduce; Absolute body weight at termination (DIO-NASH mice [5]; day 83/84/85, CHS-131 Low 10 mg/kg PO QD): 38.2 grams; Terminal relative body weight, percentage of starting body weight (DIO-NASH mice [5]; CHS-131 Low 10 mg/kg PO QD): 103%
OC[C@H]1O[C@@H](c2ccc(Cl)c(Cc3ccc(O[C@H]4CCOC4)cc3)c2)[C@H](O)[C@@H](O)[C@@H]1O [Empagliflozin, reference compound] | 3.8 | 130 | 27.2 | 923 | 3.37 | 8.48 % of body weight | 723 | 39.6 | 107 | Markers of fibrosis, effect in words (DIO-NASH mice [1]; DIO-NASH mice, 12 weeks of treatment, summary of data, markers not given): significant reduction
CSc1ccc(C(=O)/C=C/c2cc(C)c(OC(C)(C)C(=O)O)c(C)c2)cc1 [Elafibranor, reference compound] | 2.56 | 114 | 7.21 | 322 | 4.2 | 13.1 % of body weight | 757 | 31.8 | 86.5 | –
